Earlier results as cited in US20210319872A1, “DRUG AND DEVICE COMBINATION PRODUCTS WITH IMPROVED SAFETY AND EFFICACY PROFILES” (priority 2016, published 2021).

Conditions: in vivo

For `COC(=O)C1=C(C)NC(C)=C(C(=O)OC)C1c1ccccc1[N+](=O)[O-]` [Nifedipine (Adalat, Procardia)], the Dizziness is listed as “Neurologic: Dizziness (4% to 10%), Headache (19% to 23%)”, the Flushing is listed as “Dermatologic: Flushing (4% to 25%)” and the Headache is listed as “Neurologic: Dizziness (4% to 10%), Headache (19% to 23%)”. For the same compound, the Hypotension was “Cardiovascular: Hypotension (up to 5%), Palpitations (up to 7%),”, the Myocardial infarction was “Cardiovascular: Myocardial infarction (up to 4%), Ventricular” and the Nausea was “Gastrointestinal: Nausea (up to 10%)”. For the same compound, the Palpitations was “Cardiovascular: Hypotension (up to 5%), Palpitations (up to 7%),”, the Peripheral edema was “Peripheral edema (7% to 29%)” and the Ventricular arrhythmia was “arrhythmia (less than 0.5%)”.
In the case of `CCCCc1nc(Cl)c(CO)n1Cc1ccc(-c2ccccc2-c2nnn[nH]2)cc1` [Losartan (Cozaar)], the Anemia is listed as “Hematologic: Anemia (14%)”, the Chest pain is listed as “Cardiovascular: Chest pain (12%), Hypotension (7%)” and the Cough is listed as “Respiratory: Cough (10%)”. The Diarrhea was “Gastrointestinal: Diarrhea (15%)”, the Dizziness was “Neurologic: Asthenia, Dizziness (3%)” and the Hyperkalemia was “Endocrine metabolic: Hyperkalemia (7%), Hypoglycemia (14%)”. The Hypoglycemia was “Endocrine metabolic: Hyperkalemia (7%), Hypoglycemia (14%)” and the Hypotension was “Cardiovascular: Chest pain (12%), Hypotension (7%)”.
For `COCCOC(=O)C1=C(C)NC(C)=C(C(=O)OC(C)C)C1c1cccc([N+](=O)[O-])c1` (stereo not drawn) [Nimodipine (Nimotop)], the Congestive heart failure is listed as “Cardiovascular: Congestive heart failure (less than 1%)”, the Diarrhea is listed as “Gastrointestinal: Diarrhea (up to 4.2%), Nausea (0.6% to 1.4%)” and the Disseminated intravascular coagulation is listed as “(less than 1%), Hematoma (less than 1%)”. The Gastrointestinal hemorrhage was “Gastrointestinal: Gastrointestinal hemorrhage (less than 1%)”, the Headache was “Neurologic: Headache (up to 4.1%)” and the Hematoma was “(less than 1%), Hematoma (less than 1%)”. The Hypotension was “Cardiovascular: Hypotension (up to 8.1%)”, the Nausea was “Gastrointestinal: Diarrhea (up to 4.2%), Nausea (0.6% to 1.4%)” and the “Serious side effects, listed without incidence or only as rare” value was “Hematologic: Bleeding, Disseminated intravascular coagulation”.
In the case of `CCCC(C)C1(CC)C(=O)NC(=O)NC1=O` (stereo not drawn) [Nembutal (pentobarbital)], the Agitation is given as “Psychiatric: Agitation (less than 1%)”, the Apnea is given as “Respiratory: Apnea (less than 1%), Hypoventilation (less than 1%)” and the Confusion is given as “Neurologic: Confusion (less than 1%), Dizziness (less than 1%),”. For the same compound, the Dizziness was “Neurologic: Confusion (less than 1%), Dizziness (less than 1%),”, the Hypoventilation was “Respiratory: Apnea (less than 1%), Hypoventilation (less than 1%)” and the Injury of liver was “Hepatic: Injury of liver (less than 1%)”. For the same compound, the Megaloblastic anemia was “Hematologic: Megaloblastic anemia (less than 1%)”, the Somnolence was “Somnolence (1% to 3%)” and the Stevens-Johnson syndrome was “Dermatologic: Stevens-Johnson syndrome (less than 1%)”.
In the case of `CC(NC(C)(C)C)C(=O)c1cccc(Cl)c1` (stereo not drawn) [Bupropion (Wellbutrin)], the Abdominal pain is listed as “Gastrointestinal: Abdominal pain (2% to 9%), Constipation (5% to”, the Agitation is listed as “Psychiatric: Agitation (2% to 9%)” and the Confusion is listed as “Neurologic: Confusion (major depressive disorder, 8%), Dizziness”. For the same compound, the Dizziness was “(6% to 11%), Headache (25% to 34%), Insomnia (11% to 20%)”, the Headache was “(6% to 11%), Headache (25% to 34%), Insomnia (11% to 20%)” and the Hostile behavior was “Hallucinations, Hostile behavior (major depressive disorder, 6%),”. The Insomnia was “(6% to 11%), Headache (25% to 34%), Insomnia (11% to 20%)”, the Nasopharyngitis was “Respiratory: Nasopharyngitis (seasonal affective disorder, 13%),” and the Nausea was 10%), Nausea (13% to 18%), Xerostomia (17% to 26%). For the same compound, the Pharyngitis was “Pharyngitis (major depressive disorder, 3% to 11%), Upper”, the Seizure was “Neurologic: Seizure (major depressive disorder, 0.1% to 0.4%)” and the Tachycardia was “Cardiovascular: Tachycardia (major depressive disorder, 11%)”. For the same compound, the Upper respiratory infection was “respiratory infection (seasonal affective disorder, 9%)”, the Weight gain was “Endocrine metabolic: Weight gain (2% to 9%), Weight loss (major” and the Weight loss was “depressive disorder, 14% to 19%)”. The Xerostomia was 10%), Nausea (13% to 18%), Xerostomia (17% to 26%).
For Contrave, the Amnesia is listed as “Neurologic: Amnesia (Less than 2%), Seizure (0.1%)”, the Anxiety is listed as “Psychiatric: Anxiety (4.2%)” and the Cholecystitis is listed as “Gastrointestinal: Cholecystitis (Less than 2%), Hematochezia (Less”. For the same compound, the Constipation was “Gastrointestinal: Constipation (19.2%), Diarrhea (7.1%), Nausea”, the Depression was “Psychiatric: Depression (6.3% to 7.1%), Mania, Psychiatric” and the Diarrhea was “Gastrointestinal: Constipation (19.2%), Diarrhea (7.1%), Nausea”. The Dizziness was “Neurologic: Dizziness (9.9%), Headache (17.6%), Insomnia (9.2%)”, the Erythema multiforme was “Dermatologic: Erythema multiforme (Rare), Stevens-Johnson” and the Headache was “Neurologic: Dizziness (9.9%), Headache (17.6%), Insomnia (9.2%)”. The Hypertension was “Cardiovascular: Hypertension (3.2%), Increased heart rate,”, the “Infectious disorder of kidney” value was “Renal: Infectious disorder of kidney (Less than 2%), Serum” and the Insomnia was “Neurologic: Dizziness (9.9%), Headache (17.6%), Insomnia (9.2%)”. For the same compound, the Intervertebral disc prolapse was “Musculoskeletal: Intervertebral disc prolapse (Less than 2%)”, the Myocardial infarction was “Myocardial infarction (Less than 2%)” and the Nausea was “(32.5%), Vomiting (10.7%), Xerostomia (8.1%)”. The Pneumonia was “Respiratory: Pneumonia (Less than 2%)”, the Seizure was “Neurologic: Amnesia (Less than 2%), Seizure (0.1%)” and the “Serious side effect, Cardiovascular” value was “Cardiovascular: Hypertension (3.2%), Increased heart rate,”. The “Serious side effect, Endocrine metabolic” value was “Endocrine metabolic: Hypoglycemia”, the “Serious side effect, Hepatic” value was “Hepatic: Hepatotoxicity” and the “Serious side effect, Immunologic” value was “Immunologic: Anaphylaxis, Delayed hypersensitivity disorder”. The “Serious side effect, Ophthalmic” value was “Ophthalmic: Angle-closure glaucoma”, the “Serious side effect, Psychiatric” value was “Psychiatric: Depression (6.3% to 7.1%), Mania, Psychiatric” and the Serum creatinine raised was “creatinine raised (Less than 2%)”. The Stevens-Johnson syndrome was “syndrome (Rare)”, the Suicidal thoughts was “symptom, Suicidal thoughts (0.03%)” and the Vomiting was “(32.5%), Vomiting (10.7%), Xerostomia (8.1%)”. For the same compound, the Xerostomia was “(32.5%), Vomiting (10.7%), Xerostomia (8.1%)”.
In the case of `O=C1CC2(CCCC2)CC(=O)N1CCCCN1CCN(c2ncccn2)CC1` [Buspirone (Buspar)], the Cerebrovascular accident is given as “Neurologic: Cerebrovascular accident (less than 0.1%)”, the Congestive heart failure is given as “Cardiovascular: Congestive heart failure (less than 0.1%),” and the Dizziness is given as “Neurologic: Dizziness (12%), Headache (6%), Somnolence (10%)”. The Feeling nervous was “Psychiatric: Feeling nervous (5%)”, the Headache was “Neurologic: Dizziness (12%), Headache (6%), Somnolence (10%)” and the Myocardial infarction was “Myocardial infarction (less than 0.1%)”. For the same compound, the Nausea was “Gastrointestinal: Nausea (8%)” and the Somnolence was “Neurologic: Dizziness (12%), Headache (6%), Somnolence (10%)”.
